{"source": "patent US20190192543A1", "about": "“NOVEL USE” (IDOGEN AB, priority 2016, published 2019)", "test_system": "IDO1 gene expression in THP-1 cells", "assay": "Induction of IDO1 in THP-1 cells (RT-qPCR)", "assay_type": "cell-based, human", "settings": "for IDO1 expression (fold change): 96 hours, normalised to HPRT1, vs DMSO control", "method": "THP-1 cells were harvested from appropriate number of T75 flasks. Cells were counted in a Bürker chamber, stained with 0.4% Trypan Blue. The appropriate number of cells for each experiment were transferred to a new tube and centrifuged at 1200 rpm, 5 min at room temperature (RT). The supernatant was discarded and fresh RPMI with 5% FBS were added to get a cell concentration of 2×10^5 cells/mL. The compound was added to the five separate wells in 6-well plates such that five different final concentrations were obtained after adding the cells. A control was added to one well in the 6-well plate to which cells were added. 1×10^6 cells per well were seeded out to achieve a total volume of 5 mL per well. The cells were incubated at 37° C. in 5% CO2 for 96 hours. After 96 hours the assay was stopped and the cells were lysed for the isolation of RNA.\nTotal RNA was extracted from THP-1 cells using the RNA RNeasy Mini extraction kit (Qiagen), according to the manufacturer's instructions. A SuperScript® VILO™ RT-kit (Thermo Fisher) was used to reverse transcribe 1 μg of total RNA to cDNA and qPCR was performed. The primers used for amplification of the human IDO1 gene were 5″-[…]-3″ (forward; SEQ ID No. 1) and 5″-[…]-3″ (reverse; SEQ ID No. 2). The primers used for amplification of the endogenous reference gene for human HPRT1 were 5″-[…]-3″ (forward; SEQ ID No. 3) and 5″-[…]-3″ (reverse; SEQ ID No. 4). In brief, RT-qPCR was performed in 20 μl reaction, consisting 10 μl PowerUp SYBR Green Master Mix, 0.5 μM of each primer, 4 μl diluted cDNA for amplification of IDO1 and 1.5 μl diluted cDNA for amplification of HPRT1. An iCycler iQ real-time detection system (Stratagene, Mx3000P, La Jolla, Calif., USA) with the following thermal profile: UDG incubation at 50° C. for 2 min, then denaturation at 95° C. for 5 min, followed by 45 cycles at 94° C. for 15 s, 58° C. for 30 s, and 60° C. for 30 s, was used to perform thermocycling and real-time detection of PCR products. After amplification a melting curve analysis was performed. The RT-qPCR experiments were always run in triplicate. IDO1 was normalised to the geometric means of two HPRT1 reference gene, using the ΔCt method. Within-group comparisons were normalized to one control sample, using the ΔΔCt method.\nThe procedure under “Induction of IDO1 in THP-1 cells” was followed such that the final concentrations set out in Table 1 were obtained.\nFollowing RNA extraction and quantification of gene expression by RT-qPRC, as described above, induction of IDO1 gene expression using Samples 1 to 6 was investigated."}
{"smiles": "Nc1ncn([C@H]2C[C@H](OP(=O)(O)OC[C@H]3O[C@@H](n4cnc5c(=O)[nH]c(N)nc54)C[C@@H]3O)[C@@H](CO)O2)c(=O)n1", "note": "[guadecitabine]", "values": [{"measurement": "IDO1 expression (fold change)", "setting": "0.1 micromolar", "value": 2.1, "unit": "fold change"}, {"measurement": "IDO1 expression (fold change)", "setting": "0.3 micromolar", "value": 4.7, "unit": "fold change"}, {"measurement": "IDO1 expression (fold change)", "setting": "1 micromolar", "value": 34, "unit": "fold change"}, {"measurement": "IDO1 expression (fold change)", "setting": "3 micromolar", "value": 68, "unit": "fold change"}, {"measurement": "IDO1 expression (fold change)", "setting": "10 micromolar", "value": 74, "unit": "fold change"}, {"measurement": "increase of IDO1 gene expression (maximum over tested concentrations)", "setting": "guadecitabine alone, 0.1-10 micromolar, highest induction at 10 micromolar", "value": "up to 74 fold"}]}
